The values below come from patent publication EP0705603A1, “Use of non-toxic cysteine sulfoxide derivatives in the treatment of cancer or for enhancing the T-cell count” (priority 1994, dated 1996).

A short description of this data set: Toxicity after intravenous administration to patients. The class given is in vivo, patient. Here is the method:
Aqueous solutions of t-butyl hydroperoxide are prepared by dissolving 50 ml of a 70% aqueous solution of t-butyl hydroperoxide in 1 litre of normal (0.9%) saline. 15-30 ml of this solution is given intravenously over a period of up to about 15 minutes.
Aqueous solutions of methyl, ethyl, propyl and butyl cysteine sulfoxide are prepared by dissolving 100 gram of the respective sulfoxide in 1 litre of normal (0.9%) saline. 30-60 ml of this solution (delivering an approximate […] dose of the sulfoxide) is given intravenously.
An aqueous solution of L-cystine is prepared by first dissolving 80 grams of N-methyl-D-glucamine in 1 litre of normal (0.9%) saline and the dissolving in 40 g of L-cystine. 50 to 60 ml of the solution (delivering an approximately 2 g dose of cystine) is given intravenously.
An aqueous solution of oxidised glutathione is prepared by dissolving 40 grams in 1 litre of normal (0.9%) saline. 50-60 ml of this solution (delivering an approximately 2 g dose of oxidised glutathione) is given intravenously.
The t-butyl hydroperoxide solution is administered by intravenous infusion over a period of up to about 15 minutes. This is then followed immediately by intravenous infusion of the sulfoxide, optionally with cystine and/or oxidised glutathione solutions, and then (within three minutes) Ultra High Frequency microwave radiation is commenced and is delivered over the next 20 - 30 minutes. 1 or 2 rest intervals of 2 to 3 minutes each are permitted during this application. Three such treatment sessions may be undertaken per day.
No immediate or late changes in blood pressure, renal or liver function, electrolytes or haematology have been seen from the method.

The NOAEL is the highest dose or exposure tested at which no adverse effect was seen.

Consider `N[C@@H](CSSC[C@H](N)C(=O)O)C(=O)O` [L-cystine], for which, under “human, in vivo, iv”, the NOAEL is greater than 100 mg/kg and the “symptoms suggestive of any toxicity” value is given as “No symptoms suggestive of any toxicity”.

In the case of `C=CC[S+]([O-])CC(N)C(=O)O` (stereo not drawn) [allyl cysteine sulfoxide], the “symptoms suggestive of any toxicity” value (human, in vivo, iv) is on record as “No symptoms suggestive of any toxicity”.

`CCCC[S+]([O-])CC(N)C(=O)O` (stereo not drawn) [butyl cysteine sulfoxide]: the “symptoms suggestive of any toxicity” value (human, in vivo, iv) is listed as “No symptoms suggestive of any toxicity”.

As for `CC[S+]([O-])CC(N)C(=O)O` (stereo not drawn) [ethyl cysteine sulfoxide], for the setting “human, in vivo, iv”, the “symptoms suggestive of any toxicity” value was “No symptoms suggestive of any toxicity”.

Turning to `C[S+]([O-])CC(N)C(=O)O` (stereo not drawn) [methyl cysteine sulfoxide], for the setting “human, in vivo, iv”, the “symptoms suggestive of any toxicity” value is “No symptoms suggestive of any toxicity”.

For the molecule `CCC[S+]([O-])CC(N)C(=O)O` (stereo not drawn) [propyl cysteine sulfoxide], the “symptoms suggestive of any toxicity” value (human, in vivo, iv) is on record as “No symptoms suggestive of any toxicity”.

As to `CC(C)(C)OO` [t-butyl hydroperoxide], for the setting “70% t-butyl hydroperoxide in water diluted in normal (0.9%) saline, intravenous, over about 5 minutes”, the “volume of saline solution of oxidising agent that can safely and effectively be administered” value worked out at 60 mL. Moreover, the “symptoms suggestive of any toxicity” value (after the intravenous administration) is “No symptoms suggestive of any toxicity”.
